Test results reported in ChEMBL document CHEMBL5321237 (Eur J Med Chem, 2023).
≈ marks a conversion by molar mass, not a printed value. Each block holds one compound with its values, some of them ahead of it. Calls of active or inactive are those of the source. No cut-off for these calls is given here.

How the values were obtained:
[1] = target: T1, Macrophage colony-stimulating factor 1 receptor (Homo sapiens, UniProt P07333); assay: Inhibition of CSF1R (unknown origin) using FRET-peptide as substrate incubated in presence of ATP by FRET based Z-LYTE assay
[2] = Metabolic stability in human liver microsomes assessed as intrinsic clearance at 3 uM measured upto 50 mins by LC-MS analysis; format: ADME, Microsome
[3] = Kinetic aqueous solubility of compound at pH 7.4 at 500 uM incubated for 90 mins by spectrophotometry analysis; format: physicochemical; details: buffer, read-out: Kinetic_solubility
[4] = target: T2, Macrophage colony-stimulating factor 1 receptor (Mus musculus, UniProt P09581); assay: Inhibition of CSF1-induced CSF1R signalling in mouse BMDM cells assessed as reduction in ERK1/2 phosphorylation preincubated for 30 mins followed by CSF1 addition and measured after 10 mins; format: cell-based
T2 sequence (P09581 whole entry): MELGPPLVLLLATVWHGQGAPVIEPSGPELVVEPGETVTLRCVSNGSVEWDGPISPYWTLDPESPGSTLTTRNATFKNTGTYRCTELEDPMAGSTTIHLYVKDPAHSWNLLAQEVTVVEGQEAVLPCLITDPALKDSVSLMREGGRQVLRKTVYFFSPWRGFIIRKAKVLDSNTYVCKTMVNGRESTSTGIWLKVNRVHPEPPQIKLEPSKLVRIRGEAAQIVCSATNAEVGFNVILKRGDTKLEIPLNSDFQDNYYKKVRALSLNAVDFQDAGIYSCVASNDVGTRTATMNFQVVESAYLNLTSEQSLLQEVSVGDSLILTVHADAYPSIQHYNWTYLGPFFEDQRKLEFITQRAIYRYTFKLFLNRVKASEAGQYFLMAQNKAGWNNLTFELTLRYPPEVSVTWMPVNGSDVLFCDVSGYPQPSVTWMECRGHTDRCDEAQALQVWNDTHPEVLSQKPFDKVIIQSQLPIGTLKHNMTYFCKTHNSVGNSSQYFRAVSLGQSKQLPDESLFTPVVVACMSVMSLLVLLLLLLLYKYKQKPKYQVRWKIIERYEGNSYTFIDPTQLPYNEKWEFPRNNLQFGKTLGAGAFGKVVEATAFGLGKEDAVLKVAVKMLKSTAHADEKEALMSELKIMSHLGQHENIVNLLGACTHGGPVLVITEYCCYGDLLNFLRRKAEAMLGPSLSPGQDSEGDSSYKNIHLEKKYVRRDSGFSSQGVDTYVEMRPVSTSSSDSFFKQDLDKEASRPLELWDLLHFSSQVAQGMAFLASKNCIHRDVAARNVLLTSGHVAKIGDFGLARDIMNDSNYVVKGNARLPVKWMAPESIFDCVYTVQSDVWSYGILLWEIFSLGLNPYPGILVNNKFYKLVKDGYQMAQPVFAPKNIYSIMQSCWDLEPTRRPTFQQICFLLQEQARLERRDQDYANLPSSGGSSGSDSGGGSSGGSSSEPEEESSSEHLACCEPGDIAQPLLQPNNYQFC

[5] = Stability in mouse plasma assessed as compound remaining at 5 uM incubated for 1 hr by LC-MS analysis; format: ADME, cell-free; details: read-out: Stability
[6] = target: T1, Macrophage colony-stimulating factor 1 receptor; assay: Binding affinity to autoinhibited form of CSF1R (unknown origin) assessed as dissociation constant incubated for 1 hr by qPCR based Hill equation analysis
[7] = Metabolic stability in mouse liver microsomes assessed as intrinsic clearance at 3 uM measured upto 50 mins by LC-MS analysis; format: ADME, Microsome
[8] = tested on: Osteoclast precursor cell; details: Homo sapiens, dose 10.0 nM, time > 7.0 day
[9] = target: T1, Macrophage colony-stimulating factor 1 receptor; assay: Binding affinity to non-autoinhibited form of CSF1R (unknown origin) assessed as dissociation constant incubated for 1 hr by qPCR based Hill equation analysis
[10] = tested on: BaF3; assay: Antiproliferative activity against BaF3 cells expressing human CSF1R assessed as suppression of cell proliferation incubated for 72 hrs by Cell Titer Glo assay; format: functional, cell-based; details: Mus musculus, BaF3, 72 h
[11] = Observed volume of distribution at steady state in C57BLKS mouse at 1 mg/kg, iv administered as cassette dose measured for 480 mins by LC-MS analysis; format: ADME, organism-based; details: in vivo, read-out: Vdss
[12] = Metabolic stability in cryopreserved pooled ICR/CD-1 mouse hepatocytes assessed as intrinsic clearance measured per 10^6 cells at 3 uM measured for 60 mins by LC-MS/MS analysis; format: ADME, cell-based, Hepatocyte; details: read-out: CLH
[13] = Plasma protein binding in mouse assessed as bound fraction at 5 uM incubated for 6 hrs by equilibrium dialysis based LC-MS analysis; format: ADME, cell-free; details: read-out: PPB (converted)
[14] = Clearance in C57BLKS mouse at 1 mg/kg, iv administered as cassette dose measured for 480 mins by LC-MS analysis; format: ADME, organism-based; details: in vivo; for clearance: C57BLKS
[15] = Half life in C57BLKS mouse at 1 mg/kg, iv administered as cassette dose measured for 480 mins by LC-MS analysis; format: ADME, organism-based; details: in vivo
[16] = tested on: Osteoclast precursor cell; details: Homo sapiens, dose 100-1000 nM, time > 7.0 day
[17] = Inhibition of […] induced osteoclast differentiation in human Osteoclast precursor cells assessed as suppression of osteoclast formation at 100 to 1000 nM incubated for over 7 days with media replacement for every 3 days by TRITC-phalloidin/Hoechst staining based microscopic analysis relative to control; format: functional, Osteoclast precursor cell; details: dose 100-1000 nM, time > 7 day
[18] = Microsomal stability mouse liver microsomes assessed as compound remaining at 5 uM incubated for 1 hr by LC-MS analysis; format: ADME, Microsome; details: read-out: Stability
[19] = target: T3, Macrophage colony-stimulating factor 1 receptor (Mus musculus) (UniProt P09581); assay: Inhibition of CSF1-induced CSF1R signalling in mouse BMDM cells assessed as reduction in ERK1/2 phosphorylation by measuring fold change preincubated for 30 mins followed by CSF1 addition and measured after 10 mins relative to pexidartinib; format: cell-based; details: time 40.0 min
T3 sequence (whole entry): T2 sequence (P09581 whole entry)

[20] = target: T1, Macrophage colony-stimulating factor 1 receptor; assay: Selectivity index, ratio of Kd for non-autoinhibited form of CSF1R (unknown origin) to Kd for autoinhibited form of CSF1R (unknown origin)
[21] = target: Epidermal growth factor receptor (Homo sapiens, UniProt P00533); assay: Inhibition of EGFR (unknown origin) in presence of ATP
Epidermal growth factor receptor, sequence (P00533 whole entry): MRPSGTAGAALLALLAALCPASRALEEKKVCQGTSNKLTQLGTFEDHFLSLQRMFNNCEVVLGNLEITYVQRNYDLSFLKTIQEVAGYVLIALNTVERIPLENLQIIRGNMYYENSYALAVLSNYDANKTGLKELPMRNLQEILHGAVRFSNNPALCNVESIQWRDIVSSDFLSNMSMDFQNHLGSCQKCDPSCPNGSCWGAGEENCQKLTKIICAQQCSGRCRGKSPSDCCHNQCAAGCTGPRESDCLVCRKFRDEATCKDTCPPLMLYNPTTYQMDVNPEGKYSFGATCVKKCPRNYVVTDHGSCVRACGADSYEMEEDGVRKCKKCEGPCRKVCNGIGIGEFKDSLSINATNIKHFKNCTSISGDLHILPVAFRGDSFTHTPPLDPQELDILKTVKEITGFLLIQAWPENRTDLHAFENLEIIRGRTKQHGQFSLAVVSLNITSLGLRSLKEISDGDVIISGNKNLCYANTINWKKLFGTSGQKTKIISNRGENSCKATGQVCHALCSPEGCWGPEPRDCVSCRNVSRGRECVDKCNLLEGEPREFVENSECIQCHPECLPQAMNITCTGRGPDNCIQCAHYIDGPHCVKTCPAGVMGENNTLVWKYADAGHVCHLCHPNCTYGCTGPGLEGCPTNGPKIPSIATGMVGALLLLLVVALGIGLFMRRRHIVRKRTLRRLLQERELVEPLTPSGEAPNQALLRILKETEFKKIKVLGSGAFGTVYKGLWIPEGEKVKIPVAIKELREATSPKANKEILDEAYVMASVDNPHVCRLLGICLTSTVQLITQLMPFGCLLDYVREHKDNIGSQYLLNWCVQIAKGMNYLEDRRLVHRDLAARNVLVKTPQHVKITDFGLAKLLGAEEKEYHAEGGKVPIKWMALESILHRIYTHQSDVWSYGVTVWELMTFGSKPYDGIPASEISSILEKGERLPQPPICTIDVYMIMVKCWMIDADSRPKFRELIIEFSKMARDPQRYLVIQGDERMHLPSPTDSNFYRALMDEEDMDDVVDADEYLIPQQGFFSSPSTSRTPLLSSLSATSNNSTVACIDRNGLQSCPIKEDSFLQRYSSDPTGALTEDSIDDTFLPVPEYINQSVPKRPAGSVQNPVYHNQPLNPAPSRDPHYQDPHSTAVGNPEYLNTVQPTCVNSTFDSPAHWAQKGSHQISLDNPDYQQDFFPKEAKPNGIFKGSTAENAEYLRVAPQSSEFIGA

T1 sequence (P07333 whole entry): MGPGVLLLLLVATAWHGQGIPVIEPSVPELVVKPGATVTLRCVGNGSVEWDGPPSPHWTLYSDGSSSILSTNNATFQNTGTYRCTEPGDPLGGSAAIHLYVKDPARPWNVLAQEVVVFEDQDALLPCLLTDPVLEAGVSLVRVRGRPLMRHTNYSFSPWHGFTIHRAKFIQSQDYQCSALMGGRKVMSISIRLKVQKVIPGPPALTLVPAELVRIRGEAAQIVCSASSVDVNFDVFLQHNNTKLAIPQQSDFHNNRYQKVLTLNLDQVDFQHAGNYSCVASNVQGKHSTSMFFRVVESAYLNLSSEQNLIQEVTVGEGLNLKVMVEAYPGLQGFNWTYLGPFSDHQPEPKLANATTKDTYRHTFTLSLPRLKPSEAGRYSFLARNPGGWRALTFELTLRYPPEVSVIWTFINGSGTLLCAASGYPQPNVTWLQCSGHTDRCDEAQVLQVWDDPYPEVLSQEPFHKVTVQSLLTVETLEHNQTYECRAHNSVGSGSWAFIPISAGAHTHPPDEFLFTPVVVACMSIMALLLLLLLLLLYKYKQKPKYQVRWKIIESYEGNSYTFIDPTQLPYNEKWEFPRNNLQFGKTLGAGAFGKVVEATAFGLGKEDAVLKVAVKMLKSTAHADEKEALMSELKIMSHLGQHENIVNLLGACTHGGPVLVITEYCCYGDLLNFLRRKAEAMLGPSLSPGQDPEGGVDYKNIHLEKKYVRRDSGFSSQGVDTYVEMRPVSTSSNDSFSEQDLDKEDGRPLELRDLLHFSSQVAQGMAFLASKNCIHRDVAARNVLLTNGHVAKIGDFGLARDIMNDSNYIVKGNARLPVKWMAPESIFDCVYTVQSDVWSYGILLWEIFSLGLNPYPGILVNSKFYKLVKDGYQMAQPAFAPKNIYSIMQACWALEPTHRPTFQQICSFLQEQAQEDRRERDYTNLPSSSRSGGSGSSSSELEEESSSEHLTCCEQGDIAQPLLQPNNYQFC

Structure (SMILES): Cc1cccc(CN(C)c2ncnc3[nH]c(-c4ccc(CO)cc4)nc23)c1
IC50 [1]: 0.0013 µM

Structure (SMILES): CN(Cc1cccs1)c1ncnc2[nH]c(-c3ccc(CO)cc3)nc12
IC50 [1]: 0.0029 µM

Structure (SMILES): Cc1ccc(CN(C)c2ncnc3[nH]c(-c4ccc(CO)cc4)nc23)cc1
IC50 [1]: 0.011 µM

Structure (SMILES): CN(CC1CCOCC1)c1ncnc2[nH]c(-c3ccc(CCO)cc3)nc12
CLint [2]: 14.7 µL/min/mg | fold change (FC) [19]: 0.7 | remaining at 1 h, 5 µM [5]: 97.9% | solubility kinetic at […], 500 µM [3]: 37.5 µM (≈ 13.8 µg/mL) | Kd [6]: 0.0005 µM | CLint [7]: 30.2 µL/min/mg | inhibition [8]: Active | Kd [9]: 0.036 µM | IC50 [4]: 0.106 µM | IC50 [10]: 1.5 µM | Vd [11]: 9 L/kg | hepatocyte CLint at 3 µM [12]: 22 µL/min/1e6 cells | fraction unbound at 6 h, 5 µM [13]: 0.366 | clearance [14]: 317 mL/min/kg | half-life [15]: 24 min | inhibition [16]: Active | Ratio [20]: 72 | inhibition (INH) [17]: 100% | remaining at 1 h, 5 µM [18]: 97.2%

Structure (SMILES): FC(F)(F)c1ccc(CNc2ccc(Cc3c[nH]c4ncc(Cl)cc34)cn2)cn1 [PEXIDARTINIB]
remaining at 1 h, 5 µM [5]: 100% | solubility kinetic at […], 500 µM [3]: 20.7 µM (≈ 8.65 µg/mL) | inhibition [8]: Active | IC50 [4]: 0.1 µM | IC50 [10]: 0.06 µM | Vd [11]: 0.4 L/kg | clearance [14]: 0.833 mL/min/kg | inhibition [16]: Active | inhibition (INH) [17]: 100%

Structure (SMILES): CN(Cc1ccccn1)c1ncnc2[nH]c(-c3ccc(CO)cc3)nc12
IC50 [1]: 0.0072 µM

Structure (SMILES): CN(Cc1ccccc1)c1ncnc2[nH]c(-c3ccc(CO)cc3)nc12
CLint [2]: 14.4 µL/min/mg | fold change (FC) [19]: 2.9 | CLint [7]: 57.8 µL/min/mg | IC50 [4]: 0.33 µM | IC50 [21]: 0.109 µM

Structure (SMILES): CN(Cc1ccncc1)c1ncnc2[nH]c(-c3ccc(CO)cc3)nc12
IC50 [1]: 0.0022 µM

Structure (SMILES): CN(Cc1ccccc1)c1ncnc2[nH]c(-c3ccccc3)nc12
IC50 [1]: 0.0027 µM

Structure (SMILES): CN(CC1CCN(Cc2ccccc2)CC1)c1ncnc2[nH]c(-c3ccc(CO)cc3)nc12
CLint [2]: 22.1 µL/min/mg | solubility kinetic at […], 500 µM [3]: 33.5 µM (≈ 14.8 µg/mL) | IC50 [4]: > 0.3 µM

Now from value to compound, other results behind:

CLint [2]: 24.2 µL/min/mg | solubility kinetic at […], 500 µM [3]: 9.2 µM (≈ 3.25 µg/mL) | IC50 [4]: > 0.3 µM
Structure (SMILES): CN(CC1CCCCO1)c1ncnc2[nH]c(-c3ccc(CO)cc3)nc12 (stereo unspecified)

CLint [2]: 15.8 µL/min/mg | remaining at 1 h, 5 µM [5]: 100% | solubility kinetic at […], 500 µM [3]: 55.4 µM (≈ 19.6 µg/mL) | Kd [6]: 0.0045 µM | CLint [7]: 58.7 µL/min/mg | Kd [9]: 0.08 µM | IC50 [4]: 0.083 µM | IC50 [10]: 3.1 µM | Vd [11]: 80 L/kg | hepatocyte CLint at 3 µM [12]: 148 µL/min/1e6 cells | fraction unbound at 6 h, 5 µM [13]: 0.44 | CL ([14]; iv, 1 mg/kg, 8 h): 3300 mL/min/kg | half-life [15]: 24 min | remaining at 1 h, 5 µM [18]: 83%
Structure (SMILES): CN(CC1CCOCC1)c1ncnc2[nH]c(-c3ccc(CO)cc3)nc12
inhibition [8]: Active | inhibition [16]: Active | inhibition (INH) [17]: 100%

CLint [2]: 22.3 µL/min/mg | fold change (FC) [19]: 0.9 | solubility kinetic at […], 500 µM [3]: 0.5 µM (≈ 0.176 µg/mL) | IC50 [4]: 0.1 µM | IC50 [1]: 0.001 µM
Structure (SMILES): CN(CC1CCCCC1)c1ncnc2[nH]c(-c3ccc(CO)cc3)nc12

CLint [2]: 20.1 µL/min/mg | solubility kinetic at […], 500 µM [3]: 131 µM (≈ 44.5 µg/mL) | IC50 [4]: > 0.3 µM
Structure (SMILES): CN(CC1CCOC1)c1ncnc2[nH]c(-c3ccc(CO)cc3)nc12 (stereo unspecified)

CLint [2]: 33.2 µL/min/mg | solubility kinetic at […], 500 µM [3]: 39.7 µM (≈ 13.5 µg/mL) | IC50 [4]: > 0.3 µM
Structure (SMILES): CN(CC1CCCO1)c1ncnc2[nH]c(-c3ccc(CO)cc3)nc12 (stereo unspecified)

CLint [2]: 3.6 µL/min/mg | solubility kinetic at […], 500 µM [3]: 469 µM (≈ 172 µg/mL) | IC50 [4]: > 0.3 µM
Structure (SMILES): CN1CCCC(CN(C)c2ncnc3[nH]c(-c4ccc(CO)cc4)nc23)C1 (stereo unspecified)
